Source: article PMC8248988, “A signal capture and proofreading mechanism for the KDEL-receptor explains selectivity and dynamic range in ER retrieval” (eLife, 2021)

Tested on: endogenous KDEL receptor in COS-7 cells
Test: ER retrieval assay, endogenous KDEL receptor redistribution
Assay type: cell-based, African green monkey
Source text: Figure 1. ER retrieval signal abundance and affinity are not correlated. (a) Sequence logos for ER resident proteins with C-terminal KDEL retrieval signals and variants thereof calculated using frequency or protein abundance ([Itzhak et al., 2017]; [Itzhak et al., 2016]). (b) Combined cellular concentrations of ER resident proteins with canonical KDEL, RDEL, and HDEL retrieval sequences in HeLa cells and mouse brain. (c) Competition binding assays for [^3H]-TAEHDEL and unlabelled TAEKDEL, TAERDEL, and TAEHDEL to the KDEL receptor. IC50 values for the competing peptides were used to calculate the apparent KDwith the Cheng-Prusoff equation ([Cheng and Prusoff, 1973]). (d) Endogenous KDEL receptor redistribution was measured in COS-7 cells in the absence (-ligand) or presence of K/R/H/A/DDEL (mScarlet-xDEL^sec). TGN46 was used as a Golgi marker. Scale bar is 10 µm. (e) The mean difference for K/R/H/A/DDEL comparisons against the shared no ligand control are shown as Cummings estimation plots. The individual data points for the fraction of KDEL receptor fluorescence in the Golgi are plotted on the upper axes with sample sizes and p values. Figure 1—source data 1. Source data for the ligand-induced KDELR receptor retrieval assays in Figure 1e. Figure 1—figure supplement 1. […] Endogenous ER chaperone secretion was measured by western blotting after challenge with different retrieval signals, and plotted as a bar graph showing mean ± SEM (n = 3). […] (a) Distribution of human KDELR1 and (b) KDELR2 was measured in COS-7 cells in the absence (-ligand) or presence of K/R/H/A/DDEL retrieval signals (K/R/H/A/DDEL^sec). […] The fraction of KDEL receptor localised to the Golgi was measured before (no ligand) and after challenge with different retrieval signals as indicated. […]
To create KDELR1-GFP and KDELR2-GFP, the reading frames for Homo sapiens KDELR1 (Uniprot: P24390) and KDELR2 (Uniprot: P33947) were cloned into the pEF5/FRT low level mammalian expression vector with a C-terminal 20 amino acid linker made up of 5 copies of Gly-Ser-Ser-Ser followed by GFP. […]

ADEL [pcDNA3.1 hGHss-mScarlet-H. sapiens BiP639-654K651A (ADEL^SEC), secreted mScarlet fusion with human BiP C-terminus, ADEL signal]
localisation of the mScarlet ligand (in words) (COS-7 cells): predominantly Golgi and punctate localisation consistent with secretion | endogenous KDEL receptor redistribution from Golgi to ER (in words) (COS-7 cells expressing mScarlet-xDEL^sec): little effect on the Golgi-ER distribution of the receptor
